Tests used:
Type in all cases: cell-based
[1] = tested on: LN18 glioblastoma cell line; test: In-vitro cell survival assay (Alamar blue), LN18; conditions: LN18, one day after compound addition
Protocol: (§1) Five tumor-derived cell lines were treated with the ROS inhibitor compounds and cell survival was monitored to determine the cancer prohibition effects of the compounds. The cell lines included HeLa, a cervical cancer cell line, and four glioblastoma cell lines U138, U87, LN18, and U118. The basic protocol for the in-vitro cell survival assay is the same for all five cell lines. In particular, the cells were seeded in 96-well plates at 2-5×10^3 cells/well (cell line dependent) in culture medium. The cells were grown for 2 days before the compounds were dissolved in DMSO and added to final concentrations of 100 uM, 10 uM, or 1 uM (DMSO final concentration 0.5%). The cell culture was then assayed one day after the addition of the compounds. The assay used Alamar blue as a redox-sensitive dye that interrogates mitochondrial fitness of cells, and these assays provided a readout for cell proliferation and viability. The raw values were normalized to an average of several vehicle control wells and are presented as percent decrease in proliferation/viability, which is converted to half maximal effective concentration (EC50) values.

[2] = tested on: U118 glioblastoma cell line; test: In-vitro cell survival assay (Alamar blue), U118; conditions: U118, one day after compound addition
Protocol: as §1

[3] = tested on: U87 glioblastoma cell line; test: In-vitro cell survival assay (Alamar blue), U87; conditions: U87, one day after compound addition
Protocol: as §1

[4] = tested on: HeLa cervical cancer cell line; test: In-vitro cell survival assay (Alamar blue), HeLa; conditions: one day after compound addition
Protocol: as §1

[5] = tested on: U138 glioblastoma cell line; test: In-vitro cell survival assay (Alamar blue), U138; conditions: U138, one day after compound addition
Protocol: as §1

SMILES	EC50 ([1]; Homo sapiens, LN-18, 24 h)	EC50 ([2]; 24 h)	EC50 ([3]; 24 h)	EC50 ([4]; Homo sapiens, 24 h)	EC50 ([5]; 24 h)	EC50 [1]	EC50 [2]	EC50 [3]	EC50 [4]	EC50 [5]
Nc1nc(N)n(-c2ccccc2)/c(=N/c2ccccc2)n1 [drawing 395]	> 100 µM	> 100 µM	33 µM	> 100 µM	> 100 µM					
O=C(c1cccc(Nc2nccc(Nc3ccc4ncsc4c3)n2)c1)N1CCCCC1 [drawing 438]	12 µM	52 µM	20 µM	19 µM	> 100 µM					
COc1cccc(Nc2nc(N)c(C(=O)c3c(C)[nH]c4ccccc34)s2)c1 [drawing 384]	10 µM	16 µM	15 µM	72 µM	19 µM					
NC(=O)c1c(NC(=O)Nc2ccccc2)sc2c1CCCC2 [drawing 401]	38 µM	34 µM	80 µM	16 µM	27 µM					
Cc1cccc(Nc2nccc(Nc3cccc(C(=O)NCc4ccc(F)cc4)c3)n2)c1 [drawing 379]	7 µM	28 µM	13 µM	13 µM	19 µM					
FC(F)(F)c1cc(-n2c(Cc3cccc4ccccc34)n[nH]c2=S)cc(C(F)(F)F)c1 [drawing 397]						> 100 µM	> 100 µM	20 µM	62 µM	> 100 µM
Cc1cccc(C(=O)n2nc(-c3ccco3)nc2NCc2ccccc2)c1 [drawing 431]	> 100 µM	> 100 µM	> 100 µM	> 100 µM	> 100 µM					
O=C1c2ccccc2C(=O)N1C[C@H](O)Cn1nc(-c2cccs2)c2ccccc2c1=O [drawing 405]	> 100 µM	> 100 µM	> 100 µM	> 100 µM	> 100 µM					
CCC(C)(C)NC(=O)c1cccc(Nc2nccc(Nc3ccc4ncsc4c3)n2)c1 [drawing 380]	15 µM	15 µM	22 µM	8 µM	46 µM					
COc1ccccc1C1C(C#N)=C(N)Oc2[nH]nc(C(F)(F)F)c21 (stereo not drawn)						62 µM	> 100 µM	80 µM	90 µM	84 µM
O=C(NCCc1ccccc1)c1cccc(Nc2nccc(Nc3ccc4ncsc4c3)n2)c1 [drawing 418]	11 µM	24 µM	13 µM	15 µM	38 µM					
O=C(c1cccc(Nc2nccc(Nc3ccc4ncsc4c3)n2)c1)N1CCCCCC1 [drawing 421]	9 µM	81 µM	25 µM	9 µM	> 100 µM					
Cc1cccc(Nc2nccc(Nc3cccc(C(=O)NCCN4CCOCC4)c3)n2)c1 [drawing 381]	11 µM	17 µM	36 µM	43 µM	54 µM					
Clc1ccc(CNc2cc(-c3ccccc3)ncn2)cc1 [drawing 383]	62 µM	33 µM	38 µM	> 100 µM	62 µM					
Cn1c(=O)c2c(nc3n(CCO)c(-c4ccccc4)cn23)n(C)c1=O [drawing 402]	> 100 µM	> 100 µM	> 100 µM	> 100 µM	> 100 µM					
C[C@@H](Oc1cc(-c2cnn(C3CCNCC3)c2)cnc1N)c1c(Cl)ccc(F)c1Cl [drawing 491]	20 µM	13 µM	12 µM	15 µM	11.9 µM					
O=C(NCCN1CCOCC1)c1cccc(Nc2nccc(Nc3ccc4ncsc4c3)n2)c1 [drawing 411]	> 100 µM	> 100 µM	18 µM	19 µM	> 100 µM					
COc1ccc(Nc2nc(N(C)CCO)nc3c2cnn3-c2ccccc2)cc1 [drawing 387]	6 µM	8 µM	11 µM	7 µM	9 µM					
Nc1nc(Nc2ccc(C(=O)N3CCCCCC3)cc2)cc(Nc2ccc3ncsc3c2)n1 [drawing 409]	14 µM	> 100 µM	25 µM	50 µM	> 100 µM					
Cc1ccc(CNC(=O)c2cccc(Nc3nccc(Nc4ccc5ncsc5c4)n3)c2)o1 [drawing 419]	7 µM	17 µM	16 µM	10 µM	19 µM					
Cc1cccc(Nc2ccnc(Nc3cccc(C(=O)N4CC=CCC4)c3)n2)c1 [drawing 371]	13 µM	28 µM	17 µM	25 µM	> 100 µM					

SMILES	EC50 ([1]; Homo sapiens, LN-18, 24 h)	EC50 ([2]; 24 h)	EC50 ([3]; 24 h)	EC50 ([4]; Homo sapiens, 24 h)	EC50 ([5]; 24 h)	EC50 [1]	EC50 [2]	EC50 [3]	EC50 [4]	EC50 [5]
Cc1nc2cc(C(=O)N[C@H](c3ccccc3)c3cccnc3)ccc2[nH]1 [drawing 398]	> 100 µM	> 100 µM	> 100 µM	> 100 µM	> 100 µM					
O=C(NCCc1ccc(F)cc1)c1cccc(Nc2nccc(Nc3ccc4ncsc4c3)n2)c1 [drawing 372]	6 µM	9 µM	10 µM	5 µM	8 µM					
NC(=O)c1c(NC(=O)[C@H]2CC(=O)N(c3ccccc3)C2)sc2c1CCCC2 [drawing 356]	> 100 µM	> 100 µM	> 100 µM	> 100 µM	> 100 µM					
O=C(c1ccccc1)n1nc(-c2ccco2)nc1NCc1ccc(Cl)cc1 [drawing 432]	> 100 µM	> 100 µM	> 100 µM	> 100 µM	> 100 µM					
CN(C)CC(C)(C)CNC(=O)c1cccc(Nc2nccc(Nc3ccc4ncsc4c3)n2)c1 [drawing 413]	9 µM	76 µM	32 µM	24 µM	73 µM					
Cc1ccc(-n2cc(-c3cccs3)nc2SCc2n[nH]c(=S)n2Cc2ccccc2)cc1 [drawing 393]						> 100 µM	> 100 µM	24 µM	> 100 µM	> 100 µM
O=C(COc1ccccc1)NCC(c1cccs1)S(=O)(=O)c1ccc(Cl)cc1 (stereo not drawn) [drawing 427]	83 µM	45 µM	36 µM	> 100 µM	> 100 µM					
CCOC(Nc1cc(-c2sccc2-n2c(C)ccc2C)[nH]n1)OCC [drawing 364]						> 100 µM	> 100 µM	26 µM	> 100 µM	> 100 µM
Nc1ccc(Nc2nccc(Nc3cc(C4CC4)[nH]n3)n2)cc1 [drawing 436]	10 µM	30 µM	5 µM	0.4 µM	1.9 µM					
Clc1nccc(Nc2cc(C3CC3)[nH]n2)n1 [drawing 435]	> 100 µM	31 µM	29 µM	45 µM	63 µM					
COc1ccc(C(NC(=O)c2[nH]nc(-c3ccccc3)c2C)c2ccncc2)cc1 (stereo not drawn)						59 µM	> 100 µM	> 100 µM	> 100 µM	> 100 µM
Cc1cccc(Nc2nccc(Nc3cccc(C(=O)NCc4ccccc4F)c3)n2)c1 [drawing 412]	6 µM	16 µM	11 µM	9 µM	34 µM					
NS(=O)(=O)c1ccc(CCNC(=O)c2cc(-c3cccs3)nc3ccccc23)cc1 [drawing 358]	25 µM	29 µM	> 100 µM	> 100 µM	> 100 µM					
COc1ccccc1-c1cc(C(F)F)n2ncc(C(=O)NCc3cccnc3)c2n1 [drawing 361]	16 µM	> 100 µM	22 µM	> 100 µM	> 100 µM					
COc1cccc(Nc2cc(Nc3cccc(C(=O)N4CCN(C(C)=O)CC4)c3)nc(N)n2)c1 [drawing 377]	64 µM	91 µM	> 100 µM	> 100 µM	> 100 µM					
Cc1cc(C)c(NC(=O)c2cc3ccccc3c(=O)s2)c(-c2cc(C)[nH]n2)c1 [drawing 400]						> 100 µM	> 100 µM	> 100 µM	> 100 µM	> 100 µM
CC(C)CN(CC(C)C)C(=O)c1cccc(Nc2nccc(Nc3ccc4ncsc4c3)n2)c1 [drawing 424]	22 µM	> 100 µM	17 µM	15 µM	54 µM					
c1cc(Nc2cc(C3CC3)[nH]n2)nc(Nc2ccc(NCc3cc(C4OCCO4)c(C4OCCO4)s3)cc2)n1 [drawing 437]	14 µM	18 µM	13 µM	13 µM	14 µM					
O=c1cc(Oc2ccccc2)c(-c2nc[nH]n2)nn1-c1ccccc1 [drawing 365]						> 100 µM	> 100 µM	26 µM	> 100 µM	> 100 µM
Cc1ccc(F)cc1S(=O)(=O)Nc1cccc(C(=O)OCC(=O)NC2CCCCC2)c1 [drawing 404]	> 100 µM	> 100 µM	33 µM	> 100 µM	> 100 µM					
Nc1nc(Nc2ccc(C(=O)NCc3ccco3)cc2)cc(Nc2ccc3ncsc3c2)n1 [drawing 375]	18 µM	27 µM	32 µM	44 µM	> 100 µM					

Reference: patent US9963452B2, “Methods, compounds, and compositions for inhibition of ROS” (AUGUSTA PHARMACEUTICALS INC., priority 2013, dated 2018)
